What was measured:
Format in all cases: cell-based
[1] = test system: FKHRL1; experiment: Immunoblot of phospho-FKHRL1 in MM.1 S cells; conditions: 10 μM
Method: (§1) 5×10^6 were cells treated with 10 μM 8-NH2-Ado for the indicated times and harvested. Cell pellets were washed with cold phosphate-buffered saline (PBS; 8.1 g NaCl, 1.14 g Na2HPO4, 0.22 g KCl, and 0.25 g/L KH2PO4) and incubated with lysis buffer (50 mM HEPES, 150 mM NaCl, 1.5 mM MgCl2, 1 mM EDTA pH 8.0, 100 mM NaFI, 10 mM Na Pyrophosphate, 500 μM PMSF, 0.5% Triton X-100, 10% glycerol) at 4° C. for one hour. Lysates were centrifuged at 4° C. for 1 minute at 9000×g, and the supernatants were collected and stored at −20° C. Protein concentration was determined by Bio-Rad protein assay (BioRad Laboratories, Hercules, Calif.). Protein, at a concentration of 30 μg, was mixed with sample buffer (125 mM Tris, pH 6.8, 4% SDS, 20% glycerol, 100 mM Dithiothreitol (DTT), and 0.05% bromophenol blue), and fractionated on a pre-cast 8-16% Tris-Glycine gel (Invitrogen/Novex, Carlsbad, Calif.). Proteins were then transferred to a Polyvinylidene Fluoride (PVDF) membrane (Immobilon-P, Millipore, Bedford, Mass.): Following protein transfer, membranes were blocked with 5% non-fat milk in PBS-T (PBS with 0.1% Tween), incubated with the primary antibody overnight at 4° C. and subsequently with horseradish peroxidase linked secondary antibody (Amersham, Arlington Heights, Ill.). […]

[2] = test system: endogenous ATP; experiment: Endogenous ATP pools
Method: MM.IS cells were grown in dextrose-free RPMI-1640 media (Invitrogen, Baltimore, Md.) supplemented with 10% fetal bovine serum, 2 mM glutamine, 100 units/ml penicillin, 100 μg/ml streptomycin and 2.5 μg/ml fungizone. Cellular ATP levels were manipulated by the addition of either antimycin (2 μM, a mitochondrial inhibitor) or 2-deoxy-D-glucose (2-DOG, 5 mM, an inhibitor of glycolysis) from Sigma (St. Louis, Mo.) with and without varying concentrations of dextrose. Six different metabolic conditions were examined: 1) antimycin without dextrose, 2) antimycin+0.25 mM dextrose, 3) antimycin+1 mM dextrose, 4) antimycin+10 mM dextrose, 5) 2-DOG without dextrose, 6) 2-DOG+10 mM dextrose. Control cells were not subjected to ATP depletion; 10 mM dextrose was added to dextrose-free RMPI-1640. Endogenous ATP was measured in a luciferase-based assay using the ATP Determination Kit from Molecular Probes (Eugene, Oreg.) and the levels corresponding to each treatment were normalized to untreated controls (20).

[3] = test system: poly (ADP-ribose) polymerase; experiment: PARP cleavage immunoblot in MM.1 S cells; conditions: 10 μM
Method: as §1, with “Calif.).” for “Calif.). Proteins were then transferred to a Polyvinylidene Fluoride (PVDF) membrane (Immobilon-P, Millipore, Bedford, Mass.): Following protein transfer, membranes were blocked with 5% non-fat milk in PBS-T (PBS with 0.1% Tween), incubated with the primary antibody overnight at 4° C. and subsequently with horseradish peroxidase linked secondary antibody (Amersham, Arlington Heights, Ill.).”
(§2) MM.1 S cells were exposed to 10 μM 8-NH2-Ado for 0, 0.5, 1, 2, 4 or 6 hours, after which cells were lysed as previously described. […] Total protein levels were also assessed to ensure equal loading and transfer (data not shown). […]

[4] = test system: FKHR; experiment: Immunoblot of phospho-FKHR in MM.1 S cells; conditions: 10 μM, data not shown
Method: as §1

[5] = test system: caspase 8; experiment: Caspase 8 activation immunoblot in MM.1 S cells; conditions: 10 μM
Method: as §1, with “Calif.).” for “Calif.). Proteins were then transferred to a Polyvinylidene Fluoride (PVDF) membrane (Immobilon-P, Millipore, Bedford, Mass.): Following protein transfer, membranes were blocked with 5% non-fat milk in PBS-T (PBS with 0.1% Tween), incubated with the primary antibody overnight at 4° C. and subsequently with horseradish peroxidase linked secondary antibody (Amersham, Arlington Heights, Ill.).”
as §2

[6] = test system: p38 MAPK; experiment: Immunoblot of phospho-p38 MAPK in MM.1 S cells; conditions: 10 μM
Method: 5×10^6 were cells treated with 10 μM 8-NH2-Ado for the indicated times and harvested. Cell pellets were washed with cold phosphate-buffered saline (PBS; 8.1 g NaCl, 1.14 g Na2HPO4, 0.22 g KCl, and 0.25 g/L KH2PO4) and incubated with lysis buffer (50 mM HEPES, 150 mM NaCl, 1.5 mM MgCl2, 1 mM EDTA pH 8.0, 100 mM NaFI, 10 mM Na Pyrophosphate, 500 μM PMSF, 0.5% Triton X-100, 10% glycerol) at 4° C. for one hour. Lysates were centrifuged at 4° C. for 1 minute at 9000×g, and the supernatants were collected and stored at −20° C. Protein concentration was determined by Bio-Rad protein assay (BioRad Laboratories, Hercules, Calif.). Protein, at a concentration of 30 μg, was mixed with sample buffer (125 mM Tris, pH 6.8, 4% SDS, 20% glycerol, 100 mM Dithiothreitol (DTT), and 0.05% bromophenol blue), and fractionated on a pre-cast 8-16% Tris-Glycine gel (Invitrogen/Novex, Carlsbad, Calif.). Proteins were then transferred to a Polyvinylidene Fluoride (PVDF) membrane (Immobilon-P, Millipore, Bedford, Mass.): Following protein transfer, membranes were blocked with 5% non-fat milk in PBS-T (PBS with 0.1% Tween), incubated with the primary antibody overnight at 4° C. and subsequently with horseradish peroxidase linked secondary antibody (Amersham, Arlington Heights, Ill.). Blots were developed using ECL Plus Chemiluminescent Western Blotting Detection reagent (Amersham, Arlington Heights, Ill.) and the signal was visualized with X-ray film (Hyperfilm, Amersham, Arlington Heights, Ill.). For reprobing purposes, blots were stripped using Restore Western Blot Stripping Buffer from Pierce Biotechnology (Rockford, Ill.). Phospho-MKK3/6 (Ser189/207), phospho-p38 (Thr180/Tyr182), phospho-ATF-2 (Thr69/71), phospho-c-Raf (Ser259), phospho-MEK1/2 (Ser217/221), total MEK1/2, phospho-ERK1/2 (Thr202/Tyr204), total ERK1/2, phospho-p90RSK (Ser380), total RSK, phospho-PDK1 (Ser241), total PDKI, phospho-PTEN (Ser380), total PTEN, phospho-Akt (Ser473), total Akt, phospho-GSK-3β (Ser9), total GSK-3β, phospho-FKHRLI (Thr32)/-FKHR (Thr24), phospho-FKHR (Ser256) primary antibodies were obtained from Cell Signaling Technology (Beverly, Mass.). Total MKK3, total MKK6, total p38, total ATF-2, total c-Raf, total FKHR, total FKHRLI, phospho-JNK and total JNK were purchased from Santa Cruz Biotechnology (Santa Cruz, Calif.). Caspase 3, caspase 9, and PARP antibodies were obtained from Pharmingen (San Diego, Calif.) and anti-MKP1 from Upstate (Lake Placid, N.Y.). Anti-caspase 8 mouse serum was a generous gift of Dr. Marcus Peter (University of Chicago).
MM.1 S cells were exposed to 10 μM 8-NH2-Ado for 0, 0.5, 1, 2, 4 and 6 hours, after which cells were lysed as previously (Example 2). 30 μg of protein was separated by gel electrophoresis, transferred to PVDF membrane, and probed with phosphorylation-specific antibodies to MKK3/6, p38 MAPK, ATF-2, MEK1/2, ERK1/2, p90RSK, JNK1, PDK1, Akt, FKHRL1 and GSK-3β. […] FIGS. 1A, 1B, 1C and 1D provide the results of the blots.
MM. I S cells were treated with 10 μM 8-chloro-adenosine for 0, 0.5, 1, 2, 4 or 6 hours or 10 μM of cytarabine, fludarabine, gemcitabine or 8-amino-adenosine for 4 hours. Cells were lysed as previously described and 30 μg of protein was separated by gel electrophoresis, transferred to PVDF membrane, and probed with phospho-p38 MAPK (Thr180/Tyr182) antibody.
In a parallel approach to test the involvement of cellular phosphatases, we treated MM.1 S cells with varying concentrations of the phosphatase inhibitor okadaic acid in combination with 8-NH2-Ado for 4 hours to assess whether the serine/threonine phosphatases PP2A and PPI are involved.

[7] = test system: PDK1; experiment: Immunoblot of PDK1 (total and phosphorylated) in MM.1 S cells; conditions: 10 μM, 0-6 hours
Method: as §1

Nc1ncnc2c1nc(N)n2[C@@H]1O[C@H](CO)[C@@H](O)[C@H]1O [8-NH2-Ado, 8-amino-adenosine]
FKHRLI phosphorylation ([1]; at 4 and 6 hours): no appreciable phosphorylation | FKHRLI phosphorylation ([1]; by 2 hours): decreases dramatically | endogenous ATP pools [2]: dramatic shifts | start of cleavage of poly (ADP-ribose) polymerase [3]: ≥ 2 h | FKHR phosphorylation [4]: similarly affected | time at which cleaved and activated caspase 8 appears [5]: 2 to 4 h | phosphorylation of p38 ([6]; 4 hours): dramatic loss of phosphorylation | p38 phosphorylation levels ([6]; after 2 hours): no appreciable phosphorylation | p38 phosphorylation levels ([6]; by 1 hour): dramatically reduced | Total and phosphorylated levels of PDK1 [7]: remain unchanged

— patent publication US20090082304A1, “Methods of Treating Hematological Malignancies with Nucleoside Analog Drugs” (NORTHWESTERN UNIVERSITY, priority 2004, published 2009)
